The text below walks through data of ChEMBL document CHEMBL3124777, “Synthesis and biological evaluation of thiazoline derivatives as new antimicrobial and anticancer agents” (Eur J Med Chem, 2014).

Converted amounts (≈) assume the structure as drawn.

For the first test, the system named is C6. In words: Cytotoxicity against rat C6 cells after 24 hrs by MTT assay. Conditions: C6, 24 h. The test is classed as functional, cell-based. A general note: Tetrazolium dyes change colour on reduction, which living cells bring about.
For orientation: IC50 means the concentration that gives 50% inhibition. For `O=C(CSc1nnnn1-c1ccccc1)N/N=c1/scc(-c2ccc(Cl)cc2)n1-c1ccccc1`, the IC50 is more than 200 µg/mL.

On to `Cn1cnnc1SCC(=O)N/N=c1/scc(-c2ccc(C#N)cc2)n1-c1ccccc1`, for which the IC50 is more than 200 µg/mL.

The next test relates to NIH3T3. In words: Cytotoxicity against mouse NIH/3T3 cells after 24 hrs by MTT assay. The test is classed as cell-based. The following applies: NIH3T3, 24 h.
As to `O=C(CSc1nnnn1-c1ccccc1)N/N=c1/scc(-c2ccc(Cl)cc2)n1-c1ccccc1`, the IC50 was determined as 313 µg/mL (≈ 602 µM).

`Cn1cnnc1SCC(=O)N/N=c1/scc(-c2ccc(C#N)cc2)n1-c1ccccc1`: the midpoint of inhibition, the IC50, lay at 153 µg/mL (≈ 343 µM).

The next test concerns C6. In words: Cytotoxicity against rat C6 cells assessed as cell viability at 200 ug/ml after 24 hrs by MTT assay relative to control. The test is classed as functional. Conditions: C6, 24 h, read-out: Activity.
Take `O=C(CSc1nnnn1-c1ccccc1)N/N=c1/scc(-c2ccc(Cl)cc2)n1-c1ccccc1`: the viability at 200 µg/mL is 52.4%.

Regarding `Cn1cnnc1SCC(=O)N/N=c1/scc(-c2ccc(C#N)cc2)n1-c1ccccc1`, the viability at 200 µg/mL amounted to 52.6%.

Another test has as its system C6. In words: Cytotoxicity against rat C6 cells assessed as cell viability at 100 ug/ml after 24 hrs by MTT assay relative to control. The following applies: C6, 24 h, read-out: Activity. The test is classed as functional.
Consider `O=C(CSc1nnnn1-c1ccccc1)N/N=c1/scc(-c2ccc(Cl)cc2)n1-c1ccccc1`, for which the viability at 100 µg/mL was 54.3%.

In the case of `Cn1cnnc1SCC(=O)N/N=c1/scc(-c2ccc(C#N)cc2)n1-c1ccccc1`, the viability at 100 µg/mL stood at 55.2%.

A further test has as its system C6. Put plainly: Cytotoxicity against rat C6 cells assessed as cell viability at 50 ug/ml after 24 hrs by MTT assay relative to control. The test is classed as functional. The following applies: C6, 24 h, read-out: Activity.
`O=C(CSc1nnnn1-c1ccccc1)N/N=c1/scc(-c2ccc(Cl)cc2)n1-c1ccccc1`: the viability at 50 µg/mL stood at 60%.

For `Cn1cnnc1SCC(=O)N/N=c1/scc(-c2ccc(C#N)cc2)n1-c1ccccc1`, the viability at 50 µg/mL came out at 58.8%.

The subject of a further test is C6. In words: Cytotoxicity against rat C6 cells assessed as cell viability at 25 ug/ml after 24 hrs by MTT assay relative to control. The test is classed as functional. The following applies: C6, 24 h, read-out: Activity.
Turning to `O=C(CSc1nnnn1-c1ccccc1)N/N=c1/scc(-c2ccc(Cl)cc2)n1-c1ccccc1`, the viability at 25 µg/mL was 62.3%.

Take `Cn1cnnc1SCC(=O)N/N=c1/scc(-c2ccc(C#N)cc2)n1-c1ccccc1`: the viability at 25 µg/mL was 58.8%.

For the next test, the system named is C6. In words: Cytotoxicity against rat C6 cells assessed as cell viability at 12 ug/ml after 24 hrs by MTT assay relative to control. The test is classed as functional. Conditions: C6, 24 h, read-out: Activity.
As for `O=C(CSc1nnnn1-c1ccccc1)N/N=c1/scc(-c2ccc(Cl)cc2)n1-c1ccccc1`, the viability at 12 µg/mL stood at 69.3%.

`Cn1cnnc1SCC(=O)N/N=c1/scc(-c2ccc(C#N)cc2)n1-c1ccccc1`: the viability at 12 µg/mL came to 62.6%.

The next test deals with C6. In words: Cytotoxicity against rat C6 cells assessed as cell viability at 6 ug/ml after 24 hrs by MTT assay relative to control. The test is classed as functional. Conditions: C6, 24 h, read-out: Activity.
For `O=C(CSc1nnnn1-c1ccccc1)N/N=c1/scc(-c2ccc(Cl)cc2)n1-c1ccccc1`, the viability at 6 µg/mL came to 77.4%.

For the compound `Cn1cnnc1SCC(=O)N/N=c1/scc(-c2ccc(C#N)cc2)n1-c1ccccc1`, the viability at 6 µg/mL turned out to be 70.2%.

The test system of a further test is Candida albicans. Put plainly: Antimicrobial activity against Candida albicans ATCC 22019 after 18 to 24 hrs by microbroth dilution method. The test is classed as functional.
Settings: not given
On the technique in general: Dilution methods test growth across graded concentrations, often in twofold steps.
The MIC is the least concentration at which growth counts as inhibited. Read a high MIC as a less susceptible organism. Consider `O=C(CSc1nnnn1-c1ccccc1)N/N=c1/scc(-c2ccc(Cl)cc2)n1-c1ccccc1`, for which the MIC was 250 µg/mL (≈ 481 µM).

`Cn1cnnc1SCC(=O)N/N=c1/scc(-c2ccc(C#N)cc2)n1-c1ccccc1` yielded an MIC of 250 µg/mL (≈ 559 µM).

Another test has as its system Fusarium culmorum. In words: Antimicrobial activity against wild type Fusarium culmorum after 48 to 72 hrs by microbroth dilution method. The test is classed as functional.
Settings: not given
In the case of `O=C(CSc1nnnn1-c1ccccc1)N/N=c1/scc(-c2ccc(Cl)cc2)n1-c1ccccc1`, the minimal inhibitory concentration (MIC) stood at 250 µg/mL (≈ 481 µM).

On to `Cn1cnnc1SCC(=O)N/N=c1/scc(-c2ccc(C#N)cc2)n1-c1ccccc1`, for which the MIC was 250 µg/mL (≈ 559 µM).

The subject of a further test is Fusarium verticillioides. Put plainly: Antimicrobial activity against Fusarium moniliforme NRRL 1866 after 48 to 72 hrs by microbroth dilution method.
Settings: not given
The test is classed as functional.
`O=C(CSc1nnnn1-c1ccccc1)N/N=c1/scc(-c2ccc(Cl)cc2)n1-c1ccccc1`: the MIC was 250 µg/mL (≈ 481 µM).

With `Cn1cnnc1SCC(=O)N/N=c1/scc(-c2ccc(C#N)cc2)n1-c1ccccc1`, the MIC was determined as 250 µg/mL (≈ 559 µM).

In the next test the test system is Fusarium solani. In words: Antimicrobial activity against Fusarium solani NRRL 13414 after 48 to 72 hrs by microbroth dilution method. The test is classed as functional.
Settings: not given
The compound `O=C(CSc1nnnn1-c1ccccc1)N/N=c1/scc(-c2ccc(Cl)cc2)n1-c1ccccc1` showed an MIC of 250 µg/mL (≈ 481 µM).

`Cn1cnnc1SCC(=O)N/N=c1/scc(-c2ccc(C#N)cc2)n1-c1ccccc1` displayed an MIC of 250 µg/mL (≈ 559 µM).

For a further test, the system named is Aspergillus ochraceus. Put plainly: Antimicrobial activity against Aspergillus ochraceus NRRL 3174 after 48 to 72 hrs by microbroth dilution method. The test is classed as functional.
Settings: not given
Take `O=C(CSc1nnnn1-c1ccccc1)N/N=c1/scc(-c2ccc(Cl)cc2)n1-c1ccccc1`: the MIC amounted to 250 µg/mL (≈ 481 µM).

On to `Cn1cnnc1SCC(=O)N/N=c1/scc(-c2ccc(C#N)cc2)n1-c1ccccc1`, for which the lowest concentration to inhibit growth (MIC) was 250 µg/mL (≈ 559 µM).

For the next test, the system named is Trichoderma harzianum. Put plainly: Antimicrobial activity against Trichoderma harzianum NRRL 20565 after 48 to 72 hrs by microbroth dilution method. The test is classed as functional.
Settings: not given
With `O=C(CSc1nnnn1-c1ccccc1)N/N=c1/scc(-c2ccc(Cl)cc2)n1-c1ccccc1`, the minimal inhibitory concentration (MIC) is 125 µg/mL (≈ 240 µM).

The compound `Cn1cnnc1SCC(=O)N/N=c1/scc(-c2ccc(C#N)cc2)n1-c1ccccc1` returned an MIC of 125 µg/mL (≈ 279 µM).

A further test relates to Penicillium chrysogenum. In words: Antimicrobial activity against Penicillium chrysogenum NRRL 1951 after 48 to 72 hrs by microbroth dilution method. The test is classed as functional.
Settings: not given
`O=C(CSc1nnnn1-c1ccccc1)N/N=c1/scc(-c2ccc(Cl)cc2)n1-c1ccccc1` had an MIC of 250 µg/mL (≈ 481 µM).

In turn, `Cn1cnnc1SCC(=O)N/N=c1/scc(-c2ccc(C#N)cc2)n1-c1ccccc1` returned an MIC of 250 µg/mL (≈ 559 µM).

The test system of the next test is Aspergillus parasiticus. In words: Antimicrobial activity against Aspergillus parasiticus NRRL 465 after 48 to 72 hrs by microbroth dilution method. The test is classed as functional.
Settings: not given
`O=C(CSc1nnnn1-c1ccccc1)N/N=c1/scc(-c2ccc(Cl)cc2)n1-c1ccccc1`: the MIC is 250 µg/mL (≈ 481 µM).

With `Cn1cnnc1SCC(=O)N/N=c1/scc(-c2ccc(C#N)cc2)n1-c1ccccc1`, inhibition of growth (MIC) required 250 µg/mL (≈ 559 µM).

The next test relates to Bacillus subtilis. In words: Antimicrobial activity against Bacillus subtilis NRS-744 after 18 to 24 hrs by microbroth dilution method.
Settings: not given
The test is classed as functional.
In turn, `O=C(CSc1nnnn1-c1ccccc1)N/N=c1/scc(-c2ccc(Cl)cc2)n1-c1ccccc1` had an MIC of 250 µg/mL (≈ 481 µM).

As for `Cn1cnnc1SCC(=O)N/N=c1/scc(-c2ccc(C#N)cc2)n1-c1ccccc1`, the MIC is 250 µg/mL (≈ 559 µM).

A further test concerns Micrococcus luteus. In words: Antimicrobial activity against Micrococcus luteus NRLL B-4375 after 18 to 24 hrs by microbroth dilution method. The test is classed as functional.
Settings: not given
In turn, `O=C(CSc1nnnn1-c1ccccc1)N/N=c1/scc(-c2ccc(Cl)cc2)n1-c1ccccc1` gave an MIC of 125 µg/mL (≈ 240 µM).

Turning to `Cn1cnnc1SCC(=O)N/N=c1/scc(-c2ccc(C#N)cc2)n1-c1ccccc1`, 250 µg/mL (≈ 559 µM) was the least that counted as inhibitory (MIC).

A further test has as its system Pseudomonas aeruginosa. Put plainly: Antimicrobial activity against Pseudomonas aeruginosa […] after 18 to 24 hrs by microbroth dilution method. The test is classed as functional.
Settings: not given
With `O=C(CSc1nnnn1-c1ccccc1)N/N=c1/scc(-c2ccc(Cl)cc2)n1-c1ccccc1`, the lowest concentration to inhibit growth (MIC) was 125 µg/mL (≈ 240 µM).

Take `Cn1cnnc1SCC(=O)N/N=c1/scc(-c2ccc(C#N)cc2)n1-c1ccccc1`: the MIC worked out at 250 µg/mL (≈ 559 µM).

The next test concerns Escherichia coli. Put plainly: Antimicrobial activity against Escherichia coli ATCC 25922 after 18 to 24 hrs by microbroth dilution method. The test is classed as functional.
Settings: not given
Compound `O=C(CSc1nnnn1-c1ccccc1)N/N=c1/scc(-c2ccc(Cl)cc2)n1-c1ccccc1` had an MIC of 125 µg/mL (≈ 240 µM).

Compound `Cn1cnnc1SCC(=O)N/N=c1/scc(-c2ccc(C#N)cc2)n1-c1ccccc1` came in with an MIC of 250 µg/mL (≈ 559 µM).

Another test has as its system Listeria monocytogenes. Put plainly: Antimicrobial activity against Listeria monocytogenes ATCC 7644 after 18 to 24 hrs by microbroth dilution method. The test is classed as functional.
Settings: not given
In turn, `O=C(CSc1nnnn1-c1ccccc1)N/N=c1/scc(-c2ccc(Cl)cc2)n1-c1ccccc1` returned an MIC of 250 µg/mL (≈ 481 µM).

As for `Cn1cnnc1SCC(=O)N/N=c1/scc(-c2ccc(C#N)cc2)n1-c1ccccc1`, the MIC was determined as 250 µg/mL (≈ 559 µM).

A further test concerns Staphylococcus aureus. Put plainly: Antimicrobial activity against Staphylococcus aureus NRRL B-767 after 18 to 24 hrs by microbroth dilution method.
Settings: not given
The test is classed as functional.
As for `O=C(CSc1nnnn1-c1ccccc1)N/N=c1/scc(-c2ccc(Cl)cc2)n1-c1ccccc1`, 250 µg/mL (≈ 481 µM) was the least that counted as inhibitory (MIC).

`Cn1cnnc1SCC(=O)N/N=c1/scc(-c2ccc(C#N)cc2)n1-c1ccccc1` returned a minimal inhibitory concentration (MIC) of 250 µg/mL (≈ 559 µM).
